SMILES strings stand for the structures. Active and inactive are the calls of the source.

Here are results for four compounds from ChEMBL document CHEMBL1201862, “PubChem BioAssay data set” (2004).

Assay [1] deals with Botulinum neurotoxin type F (Clostridium botulinum, UniProt P30996). As to the kind of experiment: High-throughput multiplex microsphere dose response for inhibitors of toxin protease, specifically Botulinum neurotoxin light chain F protease, compounds from Cherry Pick 02. The class given is functional. Particulars: read-out: EC50_MICROM.
For assay [2], the target named is Botulinum neurotoxin type A (Clostridium botulinum (strain Hall / ATCC 3502 / NCTC 13319 / Type A), UniProt P0DPI1). Nature of the assay: High-throughput multiplex microsphere dose response for inhibitors of toxin protease, specifically Botulinum neurotoxin light chain A protease, compounds from Cherry Pick 02. The class given is functional. The settings on record: read-out: EC50_MICROM.

Assay [3] has as its target T1, Apoptotic protease-activating factor 1 (Homo sapiens, UniProt O14727).
T1 sequence (O14727 whole entry): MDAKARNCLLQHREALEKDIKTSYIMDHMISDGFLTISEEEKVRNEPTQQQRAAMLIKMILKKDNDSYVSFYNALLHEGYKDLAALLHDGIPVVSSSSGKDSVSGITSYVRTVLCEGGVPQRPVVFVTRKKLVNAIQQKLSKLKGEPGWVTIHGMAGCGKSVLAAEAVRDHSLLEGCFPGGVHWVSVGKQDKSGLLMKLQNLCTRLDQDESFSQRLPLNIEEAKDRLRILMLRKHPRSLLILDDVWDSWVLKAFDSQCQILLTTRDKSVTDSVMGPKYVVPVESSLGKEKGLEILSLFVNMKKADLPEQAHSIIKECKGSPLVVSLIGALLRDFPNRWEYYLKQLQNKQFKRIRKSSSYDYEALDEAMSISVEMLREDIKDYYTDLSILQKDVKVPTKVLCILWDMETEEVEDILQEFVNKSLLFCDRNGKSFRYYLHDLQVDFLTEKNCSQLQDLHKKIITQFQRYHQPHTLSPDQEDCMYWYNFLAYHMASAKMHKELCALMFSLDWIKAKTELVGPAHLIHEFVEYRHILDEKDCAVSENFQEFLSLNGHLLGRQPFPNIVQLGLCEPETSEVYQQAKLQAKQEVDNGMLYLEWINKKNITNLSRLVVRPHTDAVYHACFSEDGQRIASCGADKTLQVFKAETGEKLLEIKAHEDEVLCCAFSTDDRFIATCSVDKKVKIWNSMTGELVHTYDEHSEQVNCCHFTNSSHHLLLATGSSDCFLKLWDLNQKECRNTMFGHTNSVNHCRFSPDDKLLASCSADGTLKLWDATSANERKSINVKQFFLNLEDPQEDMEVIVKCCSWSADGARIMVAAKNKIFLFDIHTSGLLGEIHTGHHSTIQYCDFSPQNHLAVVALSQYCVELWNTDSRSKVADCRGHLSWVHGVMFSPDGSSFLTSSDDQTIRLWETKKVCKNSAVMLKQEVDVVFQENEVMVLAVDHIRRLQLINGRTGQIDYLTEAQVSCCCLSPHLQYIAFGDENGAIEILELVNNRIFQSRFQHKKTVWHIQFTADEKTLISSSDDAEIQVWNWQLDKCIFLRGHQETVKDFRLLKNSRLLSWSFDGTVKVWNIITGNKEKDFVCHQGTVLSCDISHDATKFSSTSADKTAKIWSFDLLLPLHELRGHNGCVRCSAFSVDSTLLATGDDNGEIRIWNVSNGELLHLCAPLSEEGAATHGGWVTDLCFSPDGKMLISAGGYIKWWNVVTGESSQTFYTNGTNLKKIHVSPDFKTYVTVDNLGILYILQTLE
As to the kind of experiment: SAR analysis of small molecule inhibitors of Apaf-1 in a Fluorescent assay. The class given is functional. The settings on record: read-out: IC50_Mean.

Assay [4] has as its target T2, High affinity choline transporter 1 (Homo sapiens, UniProt Q9GZV3).
T2 sequence (Q9GZV3 whole entry): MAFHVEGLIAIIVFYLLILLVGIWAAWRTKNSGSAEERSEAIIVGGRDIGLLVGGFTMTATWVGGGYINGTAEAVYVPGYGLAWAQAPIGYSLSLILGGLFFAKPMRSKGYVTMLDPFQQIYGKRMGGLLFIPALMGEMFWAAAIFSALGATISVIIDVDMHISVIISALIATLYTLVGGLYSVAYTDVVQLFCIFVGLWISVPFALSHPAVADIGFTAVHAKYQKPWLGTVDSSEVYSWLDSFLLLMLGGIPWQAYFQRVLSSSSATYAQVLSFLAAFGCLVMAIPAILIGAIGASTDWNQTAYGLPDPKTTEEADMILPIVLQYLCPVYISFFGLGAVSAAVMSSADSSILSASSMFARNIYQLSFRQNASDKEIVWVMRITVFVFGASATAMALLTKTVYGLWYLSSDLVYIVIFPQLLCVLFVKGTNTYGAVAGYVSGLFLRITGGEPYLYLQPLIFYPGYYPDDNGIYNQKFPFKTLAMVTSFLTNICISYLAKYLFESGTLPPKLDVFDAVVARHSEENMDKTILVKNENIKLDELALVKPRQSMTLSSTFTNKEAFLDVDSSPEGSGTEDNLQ
Nature of the assay: CHT inhibitors, dose response, cell-based, 5-point CRC, membrane potential dye (AID 504840). The class given is functional.

For assay [5], the target named is T2, High affinity choline transporter 1. Nature of the assay: CHT inhibitors, dose response, cell-based, 10-point CRC, membrane potential dye (AID 588401).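 Also: membrane potential dye fluorescence of choline-evoked depolarization via CHT.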 The class given is functional.
The target of assay [6] is Heat shock protein HSP 90-alpha (Homo sapiens, UniProt P07900). The class given is functional, organism-based.
A further assay relates to H9c2. Nature of the assay: cells. The class given is functional, cell-based. Particulars: Rattus norvegicus, H9c2, Myocardium.
Assay [7] concerns the target ALK tyrosine kinase receptor (Homo sapiens, UniProt Q9UM73). The class given is functional.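 Also: ALK tested as one member of a kinase panel screen.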
The target of assay [8] is Cyclin-dependent kinase 19 (Homo sapiens, UniProt Q9BWU1). Nature of the assay: Navigating the Kinome. Panel member name: CDC2L6. The class given is functional.
Chain of Cyclin-dependent kinase 19 (Q9BWU1 whole entry): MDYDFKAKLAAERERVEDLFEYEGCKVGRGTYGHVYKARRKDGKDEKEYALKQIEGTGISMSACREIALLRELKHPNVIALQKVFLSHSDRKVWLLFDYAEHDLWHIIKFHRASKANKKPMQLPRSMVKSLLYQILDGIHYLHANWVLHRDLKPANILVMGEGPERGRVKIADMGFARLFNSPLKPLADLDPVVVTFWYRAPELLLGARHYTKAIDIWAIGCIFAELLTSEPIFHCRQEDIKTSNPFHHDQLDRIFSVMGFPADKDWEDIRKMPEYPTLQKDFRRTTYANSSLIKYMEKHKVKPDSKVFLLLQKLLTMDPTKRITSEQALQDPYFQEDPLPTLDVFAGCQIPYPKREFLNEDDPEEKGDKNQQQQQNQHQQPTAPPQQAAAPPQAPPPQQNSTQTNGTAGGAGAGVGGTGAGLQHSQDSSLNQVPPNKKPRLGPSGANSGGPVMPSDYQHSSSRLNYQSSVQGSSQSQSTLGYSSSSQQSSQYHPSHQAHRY

Chain of Botulinum neurotoxin type A (P0DPI1 2-448 limits assumed): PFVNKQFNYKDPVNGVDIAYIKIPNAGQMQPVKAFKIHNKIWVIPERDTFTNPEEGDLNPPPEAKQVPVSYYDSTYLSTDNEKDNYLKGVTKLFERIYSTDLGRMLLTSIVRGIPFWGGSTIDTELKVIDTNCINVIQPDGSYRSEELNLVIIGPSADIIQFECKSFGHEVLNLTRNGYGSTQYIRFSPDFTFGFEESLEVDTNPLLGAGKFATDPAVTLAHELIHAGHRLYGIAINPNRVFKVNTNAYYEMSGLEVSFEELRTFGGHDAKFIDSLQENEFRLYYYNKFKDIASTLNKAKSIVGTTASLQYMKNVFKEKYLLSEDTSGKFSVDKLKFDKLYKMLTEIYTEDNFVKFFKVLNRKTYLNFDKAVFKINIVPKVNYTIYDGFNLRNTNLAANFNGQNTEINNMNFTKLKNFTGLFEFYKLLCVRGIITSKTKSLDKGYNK
Chain of ALK tyrosine kinase receptor (Q9UM73 whole entry): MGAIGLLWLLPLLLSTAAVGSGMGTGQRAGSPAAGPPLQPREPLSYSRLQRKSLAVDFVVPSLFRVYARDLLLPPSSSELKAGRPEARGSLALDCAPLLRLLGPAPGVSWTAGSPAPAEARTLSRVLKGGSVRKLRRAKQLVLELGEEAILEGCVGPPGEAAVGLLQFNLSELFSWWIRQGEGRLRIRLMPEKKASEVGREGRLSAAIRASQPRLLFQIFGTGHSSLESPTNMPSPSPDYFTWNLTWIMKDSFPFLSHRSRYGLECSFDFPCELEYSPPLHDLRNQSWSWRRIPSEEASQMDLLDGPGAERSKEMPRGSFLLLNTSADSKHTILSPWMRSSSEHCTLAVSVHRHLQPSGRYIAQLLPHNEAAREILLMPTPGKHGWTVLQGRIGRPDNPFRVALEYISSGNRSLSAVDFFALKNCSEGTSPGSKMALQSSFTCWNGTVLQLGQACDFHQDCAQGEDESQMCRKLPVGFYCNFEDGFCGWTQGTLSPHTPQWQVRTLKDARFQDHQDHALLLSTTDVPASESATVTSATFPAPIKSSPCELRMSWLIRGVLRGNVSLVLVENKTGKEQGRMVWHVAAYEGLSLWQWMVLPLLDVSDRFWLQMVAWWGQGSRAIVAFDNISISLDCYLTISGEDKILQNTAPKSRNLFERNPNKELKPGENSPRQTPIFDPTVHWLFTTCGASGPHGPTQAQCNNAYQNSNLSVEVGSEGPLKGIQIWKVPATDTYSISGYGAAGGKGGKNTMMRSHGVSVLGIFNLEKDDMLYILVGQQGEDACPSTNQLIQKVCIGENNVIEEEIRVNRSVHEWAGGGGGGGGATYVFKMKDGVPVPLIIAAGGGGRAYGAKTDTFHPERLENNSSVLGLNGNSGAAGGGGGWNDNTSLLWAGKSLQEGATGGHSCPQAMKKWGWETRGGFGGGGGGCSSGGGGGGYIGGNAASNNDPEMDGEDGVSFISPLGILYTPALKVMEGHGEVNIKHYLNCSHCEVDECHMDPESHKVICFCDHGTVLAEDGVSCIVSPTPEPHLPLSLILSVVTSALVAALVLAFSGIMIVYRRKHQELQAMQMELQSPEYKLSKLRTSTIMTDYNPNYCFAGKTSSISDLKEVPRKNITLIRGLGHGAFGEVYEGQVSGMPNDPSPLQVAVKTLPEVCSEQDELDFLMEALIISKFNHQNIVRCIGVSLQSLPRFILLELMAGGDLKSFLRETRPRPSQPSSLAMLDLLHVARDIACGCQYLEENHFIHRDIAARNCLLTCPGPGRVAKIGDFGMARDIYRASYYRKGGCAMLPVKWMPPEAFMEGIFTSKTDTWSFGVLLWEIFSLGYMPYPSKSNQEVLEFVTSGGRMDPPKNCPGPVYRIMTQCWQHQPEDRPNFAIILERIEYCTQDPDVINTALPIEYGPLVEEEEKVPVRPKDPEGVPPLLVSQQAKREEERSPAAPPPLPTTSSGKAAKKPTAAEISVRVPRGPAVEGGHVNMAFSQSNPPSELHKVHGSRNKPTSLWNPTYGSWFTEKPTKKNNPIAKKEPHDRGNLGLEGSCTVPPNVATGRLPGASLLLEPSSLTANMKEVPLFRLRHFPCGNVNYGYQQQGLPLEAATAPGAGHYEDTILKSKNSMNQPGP
Chain of Botulinum neurotoxin type F (P30996 1-436 limits assumed): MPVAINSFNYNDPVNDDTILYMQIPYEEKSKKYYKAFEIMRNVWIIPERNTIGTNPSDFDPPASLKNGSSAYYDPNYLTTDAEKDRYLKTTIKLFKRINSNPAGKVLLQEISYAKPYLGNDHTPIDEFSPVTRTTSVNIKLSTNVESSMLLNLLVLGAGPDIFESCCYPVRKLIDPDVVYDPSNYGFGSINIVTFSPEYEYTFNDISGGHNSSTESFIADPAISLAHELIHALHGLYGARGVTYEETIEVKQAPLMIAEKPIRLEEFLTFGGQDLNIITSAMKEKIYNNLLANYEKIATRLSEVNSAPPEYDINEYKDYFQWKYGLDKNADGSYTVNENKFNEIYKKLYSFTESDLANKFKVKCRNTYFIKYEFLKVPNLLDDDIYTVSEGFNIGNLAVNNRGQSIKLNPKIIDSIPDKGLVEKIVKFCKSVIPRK

In the case of `O=C(Cc1ccccc1)c1ccccn1`, the EC50 in [1] is > 20 µM (inactive); in assay [2], 8.6 µM (active).
`Cc1cc(NC(=O)C2CC2)sc1C(=O)Nc1ccc2[nH]c(-c3cc(F)ccc3F)nc2c1`: the IC50 in [3] is 42.4 µM (active).
One may read the AC50 as the midpoint of the concentration-response curve, whichever way the signal moves. Regarding `Oc1c(Br)cc(Br)cc1/C=N/Cc1ccccc1`, the IC50 in assay [4] is 9.73 µM (active); in [5], 3.16 µM (active); in the assay with H9c2, > 79 µM (inactive). The AC50 in [6] is 5.31 µM (active).
A word on the Ki: it is the dissociation constant of the complex between target and ligand, obtained from inhibition or displacement. For the compound `Cn1cc(Nc2ncc(Br)c(Nc3ccccc3S(C)(=O)=O)n2)cn1`, the Ki was 2.51 µM (active) in assay [7] and > 100 µM (inactive) in assay [8].
